According to PubChem BioAssay AID1845216 (Molecular Pharmacology Branch, DTP, NCI, 2023):
Several values for one entry are separate records, joined by “and”; a condition that tells them apart may be missing. Equal values may be shown once.

Test system: SW 982 tumor spheroid viability
Assay: Anticancer human tumor SW 982 cell line growth inhibition;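 further: spheroids exposed to compound for 7 days before readout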
Settings: spheroids with HUVEC and MSC; for viability, T/C: stronger effect = lower value
In short: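 Single agents and combinations were tested on spheroids built from tumor cells plus HUVEC and hMSC, at half-log dilutions starting at or near clinical Cmax, else 10 microM; final DMSO 0.25% (v/v).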

[1] = curve of first compound, second compound 30 pM
[2] = curve of first compound, second compound 94.9 pM
[3] = curve of first compound, second compound 0.0003 µM
[4] = curve of first compound, second compound 0.000949 µM
[5] = curve of first compound, second compound 0.003 µM
[6] = second compound 30 pM, first compound 0.0316 µM
[7] = second compound 30 pM, first compound 0.1 µM
[8] = second compound 30 pM, first compound 0.316 µM
[9] = second compound 30 pM, first compound 1 µM
[10] = second compound 30 pM, first compound 3.16 µM
[11] = second compound 30 pM, first compound 10 µM
[12] = second compound 94.9 pM, first compound 0.0316 µM
[13] = second compound 94.9 pM, first compound 0.1 µM
[14] = second compound 94.9 pM, first compound 0.316 µM
[15] = second compound 94.9 pM, first compound 1 µM
[16] = second compound 94.9 pM, first compound 3.16 µM
[17] = second compound 94.9 pM, first compound 10 µM
[18] = second compound 0.0003 µM, first compound 0.0316 µM
[19] = second compound 0.0003 µM, first compound 0.1 µM
[20] = second compound 0.0003 µM, first compound 0.316 µM
[21] = second compound 0.0003 µM, first compound 1 µM
[22] = second compound 0.0003 µM, first compound 3.16 µM
[23] = second compound 0.0003 µM, first compound 10 µM
[24] = second compound 0.000949 µM, first compound 0.0316 µM
[25] = second compound 0.000949 µM, first compound 0.1 µM
[26] = second compound 0.000949 µM, first compound 0.316 µM
[27] = second compound 0.000949 µM, first compound 1 µM
[28] = second compound 0.000949 µM, first compound 3.16 µM
[29] = second compound 0.000949 µM, first compound 10 µM
[30] = second compound 0.003 µM, first compound 0.0316 µM
[31] = second compound 0.003 µM, first compound 0.1 µM
[32] = second compound 0.003 µM, first compound 0.316 µM
[33] = second compound 0.003 µM, first compound 1 µM
[34] = second compound 0.003 µM, first compound 3.16 µM
[35] = second compound 0.003 µM, first compound 10 µM

`Cc1cc(C)c(CNC(=O)c2cc(-c3ccc(CN4CCOCC4)cc3)cc3c2cnn3C2CCCC2)c(=O)[nH]1` + COc1cc2c(cc1O)CCNC21CSC2c3c(OC(C)=O)c(C)c4c(c3C(COC1=O)N1C(O)C3Cc5cc(C)c(OC)c(O)c5C(C21)N3C)OCO4 showed an IC50 [1] of over 10 µM, an IC50 [2] of over 10 µM and an IC50 [3] of 10 µM. It also gave an IC50 [4] of under 0.0316 µM, an IC50 [5] of under 0.0316 µM and a viability, T/C [6] of 97.9%. It also gave a viability, T/C [7] of 99.7%, a viability, T/C [8] of 104% and a viability, T/C [9] of 96.7%. The viability, T/C [10] was 92%, the viability, T/C [11] was 66.7% and the viability, T/C [12] was 95.4%. The viability, T/C [13] was 106%, the viability, T/C [14] was 102% and the viability, T/C [15] was 103%. For the same molecule, the viability, T/C [16] was 88.4%, the viability, T/C [17] was 57.9% and the viability, T/C [18] was 74.7%. The viability, T/C [19] was 76%, the viability, T/C [20] was 84% and the viability, T/C [21] was 80.7%. It also gave a viability, T/C [22] of 71.5%, a viability, T/C [23] of 49.8% and a viability, T/C [24] of 35.7%. For the same molecule, the viability, T/C [25] was 39.9%, the viability, T/C [26] was 37.5% and the viability, T/C [27] was 36.1%. For the same molecule, the viability, T/C [28] was 27.6%, the viability, T/C [29] was 17.8% and the viability, T/C [30] was 0.71%. The viability, T/C [31] was 0.36%, the viability, T/C [32] was 0.51% and the viability, T/C [33] was 0.31%. It also gave a viability, T/C [34] of 0.29% and a viability, T/C [35] of 0.83%.
With `O=C(c1cc(Cc2n[nH]c(=O)c3ccccc23)ccc1F)N1CCN(C(=O)C2CC2)CC1` the viability, T/C (compound 0.0949 µM) was 99.7% and 104% and 98.4%, the viability, T/C (compound 0.3 µM) was 102% and 97.7% and 100% and the viability, T/C (compound 0.949 µM) was 96.9% and 88.7% and 98.6%. For the same molecule, the viability, T/C (compound 3 µM) was 79.8% and 87.7% and 85.5%, the viability, T/C (compound 9.49 µM) was 63.3% and 54.4% and 49.8% and the viability, T/C (compound 30 µM) was 47.1% and 43.4% and 46.1%. The IC50 (curve of compound) was 24.7 µM and 15.8 µM and 9.44 µM.
In the case of `COc1ccc([C@@H](O)c2cc(-c3ncnc4cc(N5CCOCC5)ccc34)c(F)cc2Cl)nn1`, the viability, T/C (compound 0.0316 µM) is reported as 88.1% and 102% and 107%, the viability, T/C (compound 0.1 µM) is reported as 87.4% and 93.8% and 101% and the viability, T/C (compound 0.316 µM) is reported as 90.2% and 97.4% and 99.4%. The viability, T/C (compound 1 µM) was 89.2% (2×) and 98.7%, the viability, T/C (compound 3.16 µM) was 90.2% and 85.7% and 95.6% and the viability, T/C (compound 10 µM) was 57.1% and 67% and 70.2%. For the same molecule, the IC50 (curve of compound) was over 10 µM.
Molecule `O=C(c1cc(Cc2n[nH]c(=O)c3ccccc23)ccc1F)N1CCN(C(=O)C2CC2)CC1` + CC[C@@]1(O)C(=O)OCc2c1cc1n(c2=O)Cc2cc3c(CN(C)C)c(O)ccc3nc2-1 has an IC50 [5] of 23.7 µM, an IC50 (curve of first compound, second compound 0.00949 µM) of 22.5 µM and an IC50 (curve of first compound, second compound 0.03 µM) of 17.7 µM. For the same molecule, the IC50 (curve of first compound, second compound 0.0949 µM) was 10.5 µM, the IC50 (curve of first compound, second compound 0.3 µM) was under 0.0949 µM and the viability, T/C (second compound 0.003 µM, first compound 0.0949 µM) was 83.3%. It also gave a viability, T/C (second compound 0.003 µM, first compound 0.3 µM) of 80.5%, a viability, T/C (second compound 0.003 µM, first compound 0.949 µM) of 84.1% and a viability, T/C (second compound 0.003 µM, first compound 3 µM) of 78.9%. For the same molecule, the viability, T/C (second compound 0.003 µM, first compound 9.49 µM) was 66.6%, the viability, T/C (second compound 0.003 µM, first compound 30 µM) was 45.7% and the viability, T/C (second compound 0.00949 µM, first compound 0.0949 µM) was 85.6%. For the same molecule, the viability, T/C (second compound 0.00949 µM, first compound 0.3 µM) was 83.8%, the viability, T/C (second compound 0.00949 µM, first compound 0.949 µM) was 87.1% and the viability, T/C (second compound 0.00949 µM, first compound 3 µM) was 78%. For the same molecule, the viability, T/C (second compound 0.00949 µM, first compound 9.49 µM) was 73.7%, the viability, T/C (second compound 0.00949 µM, first compound 30 µM) was 42.2% and the viability, T/C (second compound 0.03 µM, first compound 0.0949 µM) was 72.6%. The viability, T/C (second compound 0.03 µM, first compound 0.3 µM) was 76.3%, the viability, T/C (second compound 0.03 µM, first compound 0.949 µM) was 81.8% and the viability, T/C (second compound 0.03 µM, first compound 3 µM) was 75.8%. The viability, T/C (second compound 0.03 µM, first compound 9.49 µM) was 60.5%, the viability, T/C (second compound 0.03 µM, first compound 30 µM) was 41.1% and the viability, T/C (second compound 0.0949 µM, first compound 0.0949 µM) was 63.6%. It also gave a viability, T/C (second compound 0.0949 µM, first compound 0.3 µM) of 66.3%, a viability, T/C (second compound 0.0949 µM, first compound 0.949 µM) of 59.7% and a viability, T/C (second compound 0.0949 µM, first compound 3 µM) of 60.2%. For the same molecule, the viability, T/C (second compound 0.0949 µM, first compound 9.49 µM) was 49.6%, the viability, T/C (second compound 0.0949 µM, first compound 30 µM) was 39.4% and the viability, T/C (second compound 0.3 µM, first compound 0.0949 µM) was 36.2%. The viability, T/C (second compound 0.3 µM, first compound 0.3 µM) was 43.4%, the viability, T/C (second compound 0.3 µM, first compound 0.949 µM) was 43.3% and the viability, T/C (second compound 0.3 µM, first compound 3 µM) was 39.6%. The viability, T/C (second compound 0.3 µM, first compound 9.49 µM) was 31.1% and the viability, T/C (second compound 0.3 µM, first compound 30 µM) was 17.6%.
For `CC(C)n1c(=O)n(C)c2cnc3cc(F)c(-c4ccc(OCCCN5CCCCC5)nc4)cc3c21` + COc1cc2c(cc1O)CCNC21CSC2c3c(OC(C)=O)c(C)c4c(c3C(COC1=O)N1C(O)C3Cc5cc(C)c(OC)c(O)c5C(C21)N3C)OCO4, the IC50 [1] was 2.85 µM, the IC50 [2] was 5.66 µM and the IC50 [3] was 2.45 µM. For the same molecule, the IC50 [4] was under 0.0316 µM, the IC50 [5] was under 0.0316 µM and the viability, T/C [6] was 83.8%. The viability, T/C [7] was 87.3%, the viability, T/C [8] was 83.9% and the viability, T/C [9] was 76.5%. It also gave a viability, T/C [10] of 47.3%, a viability, T/C [11] of 42.7% and a viability, T/C [12] of 80.6%. For the same molecule, the viability, T/C [13] was 80.5%, the viability, T/C [14] was 79.1% and the viability, T/C [15] was 75.1%. The viability, T/C [16] was 59.8%, the viability, T/C [17] was 40.4% and the viability, T/C [18] was 69.2%. For the same molecule, the viability, T/C [19] was 65.5%, the viability, T/C [20] was 72.4% and the viability, T/C [21] was 64.5%. For the same molecule, the viability, T/C [22] was 45.9%, the viability, T/C [23] was 37% and the viability, T/C [24] was 32.3%. It also gave a viability, T/C [25] of 30.3%, a viability, T/C [26] of 30.6% and a viability, T/C [27] of 43.6%. It also gave a viability, T/C [28] of 33.8%, a viability, T/C [29] of 21.6% and a viability, T/C [30] of 0.57%. For the same molecule, the viability, T/C [31] was 0.53%, the viability, T/C [32] was 0.47% and the viability, T/C [33] was 0.5%. The viability, T/C [34] was 0.57% and the viability, T/C [35] was 0.64%.
For `Cn1ncnc1[C@H]1c2n[nH]c(=O)c3cc(F)cc(c23)N[C@@H]1c1ccc(F)cc1`, the viability, T/C (compound 0.00949 µM) was 80.9% and 90% and 94.8%, the viability, T/C (compound 0.03 µM) was 93.7% and 94.9% and 97.7% and the viability, T/C (compound 0.0949 µM) was 88.3% and 90.8% and 91.5%. The viability, T/C (compound 0.3 µM) was 77.9% and 87.9% and 79.2%, the viability, T/C (compound 0.949 µM) was 82.8% and 80.2% and 81.8% and the viability, T/C (compound 3 µM) was 75.7% and 82.9% and 62.9%. For the same molecule, the IC50 (curve of compound) was over 3 µM.
